# Measured values as given in US20240261417A1, “SOS1 DEGRADING AGENT AND PREPARATION METHOD THEREFOR AND APPLICATION THEREOF” (SHANGHAI LEADINGTAC PHARMACEUTICAL CO. LTD., priority 2021, published 2024).
# Molecular target: T1, SOS1 protein (Homo sapiens, UniProt Q07889)
# T1 sequence (Q07889 1-1333): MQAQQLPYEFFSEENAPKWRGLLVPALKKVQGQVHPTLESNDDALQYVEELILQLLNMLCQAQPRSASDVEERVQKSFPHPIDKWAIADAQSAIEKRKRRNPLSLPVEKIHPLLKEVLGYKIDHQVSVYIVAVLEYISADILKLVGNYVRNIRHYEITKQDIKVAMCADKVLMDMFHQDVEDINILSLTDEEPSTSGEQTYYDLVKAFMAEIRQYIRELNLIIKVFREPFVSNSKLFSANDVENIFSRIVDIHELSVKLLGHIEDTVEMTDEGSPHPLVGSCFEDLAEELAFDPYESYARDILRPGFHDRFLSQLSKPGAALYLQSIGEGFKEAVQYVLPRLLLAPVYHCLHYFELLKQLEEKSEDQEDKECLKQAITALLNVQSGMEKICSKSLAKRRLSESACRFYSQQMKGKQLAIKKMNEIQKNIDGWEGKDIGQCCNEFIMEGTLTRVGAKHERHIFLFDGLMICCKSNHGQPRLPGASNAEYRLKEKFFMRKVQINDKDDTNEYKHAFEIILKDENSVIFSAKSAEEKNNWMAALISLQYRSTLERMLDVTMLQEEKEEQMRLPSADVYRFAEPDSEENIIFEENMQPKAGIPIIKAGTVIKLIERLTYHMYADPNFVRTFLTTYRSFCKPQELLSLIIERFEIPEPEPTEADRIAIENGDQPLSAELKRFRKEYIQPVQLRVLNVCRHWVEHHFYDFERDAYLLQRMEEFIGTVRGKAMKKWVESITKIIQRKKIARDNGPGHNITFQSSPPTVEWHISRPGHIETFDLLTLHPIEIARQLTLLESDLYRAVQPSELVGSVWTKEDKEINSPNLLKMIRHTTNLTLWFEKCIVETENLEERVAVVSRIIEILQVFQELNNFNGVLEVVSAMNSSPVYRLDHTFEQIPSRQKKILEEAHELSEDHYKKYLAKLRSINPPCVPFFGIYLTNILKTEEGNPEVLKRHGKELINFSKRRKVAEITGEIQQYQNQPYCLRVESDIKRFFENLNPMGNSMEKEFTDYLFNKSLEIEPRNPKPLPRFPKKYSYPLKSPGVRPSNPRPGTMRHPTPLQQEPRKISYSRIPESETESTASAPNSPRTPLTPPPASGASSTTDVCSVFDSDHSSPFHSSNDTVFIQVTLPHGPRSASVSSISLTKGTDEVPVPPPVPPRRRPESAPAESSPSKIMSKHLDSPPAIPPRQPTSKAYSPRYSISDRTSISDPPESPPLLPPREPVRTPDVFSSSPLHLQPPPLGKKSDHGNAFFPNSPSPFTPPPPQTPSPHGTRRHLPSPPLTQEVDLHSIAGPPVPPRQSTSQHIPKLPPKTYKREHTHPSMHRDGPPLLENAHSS
# Assay: SOS1 degradation assay (Western blot), A-427 cells
# Type: cell-based
# Set-up: host or cells: A-427 (human cancer cell lines)
# Conditions: 24 h; for DC50: read-out: A427 (G12D) DC50; for Dmax: read-out: A427 (G12D) Dmax
# Experimental: The specific procedures were as follows:
# 0.95 mL of cells were seeded into each well of a 24-well cell culture plate to achieve a cell density of 5×10^5 cells/well; the cell plate was incubated in an incubator at 37° C. with 5% CO2 overnight. Then 50 μL of the compound solution after dilution was added to each of the wells with the corresponding cells, so that the final concentration of the compound was in a range of 0.03-3000 nM. […] After dosing, the cell plate was incubated in an incubator at 37° C. with 5% CO2 for 24 h. […] After the plate was left to stand on ice for 30 min, the protein lysate in each well was transferred to a 1.5 mL centrifuge tube and centrifuged at 15000 g for 20 min at 4° C. The cell lysate supernatant after centrifugation was cryopreserved at −80° C. for testing and was used for determining the degradation level of the SOS1 protein by a WB method. The concentration of total protein in the cell lysate supernatant was determined using the BCA Protein Quantification Kit (Tiangen, PA115-02).
# The concentration of total protein in the cell lysate was determined by BCA. The total protein was adjusted to 0.5 μg/μL with PBS and 5× SDS-PAGE protein loading buffer (Beyotime, P0015L), incubated in a water bath at 100° C. for 15 min, incubated in an ice bath on ice for 5 min, centrifuged at 14000 g for 1 min at 4° C., and mixed well as a loading sample for WB. Protein electrophoresis was performed on a precast gel (KeyGEN, KGMGO10W15) with a loading volume of 10 μL (total protein: 5 μg) using a Tris-MOPS-SDS running solution (Adamas, P1598253) at a constant voltage of 120 V for 55 min. After the electrophoresis, the protein on the gel strip was transferred to a PVDF membrane at a constant current of 250 mA for 65 min. After the membrane transfer, the membrane was incubated in 1× QuickBlock blocking buffer (Beyotime, P0235) for 30 min at room temperature. […] The protein map was subjected to gray value analysis by the chemiluminescence imaging system from Clinx. […] Then the degradation rate was calculated by comparing the gray correction value with the gray correction value of the control group. Then nonlinear curve fitting was performed by GraphPad Prism 8 in the logarithmic concentration-inhibition rate to obtain the DC50 and Dmax values of the compounds.
DC50,Dmax,SMILES
< 50 nM,80 to 100%,"COc1cc2nc(C)nc(N[C@H](C)c3cc(N)cc(C(F)(F)F)c3)c2cc1[C@H]1CC[C@H](C(=O)N2CCN(CCC3CCC4(CC3)CCN(C(=O)c3ccc(Cl)c(N5CCC(=O)NC5=O)c3)CC4)CC2)CC1 [Example 1, 1-(5-(9-(2-(4-((1R,4R)-4-(4-(((R)-1-(3-amino-5-(trifluoromethyl)phenyl)ethyl)amino)-7-methoxy-2-methylquinazolin-6-yl)cyclohexane-1-carbonyl)piperazin-1-yl)ethyl)-3-azaspiro[5.5]undecane-3-carbonyl)-2-chlorophenyl)dihydropyrimidine-2,4(1H,3H)-dione]"
< 50 nM,50 to 80%,"COc1cc2nc(C)nc(N[C@H](C)c3cc(N)cc(C(F)(F)F)c3)c2cc1[C@H]1CC[C@H](C(=O)N2CCC(CCOCC3CCN(C(=O)c4ccc(Cl)c(N5CCC(=O)NC5=O)c4)CC3)CC2)CC1 [Example 19, 1-(5-(4-((2-(1-((1R,4R)-4-(4-(((R)-1-(3-amino-5-(trifluoromethyl)phenyl)ethyl)amino)-7-methoxy-2-methylquinazolin-6-yl)cyclohexane-1-carbonyl)piperidin-4-yl)ethoxy)methyl)piperidine-1-carbonyl)-2-chlorophenyl)dihydropyrimidine-2,4(1H,3H)-dione]"
< 50 nM,80 to 100%,"CNCc1ccccc1-c1csc([C@@H](C)Nc2nc(C)nc3cc(OC)c([C@H]4CC[C@H](C(=O)N5CCN(CC6CCC7(CC6)CCN(C(=O)c6ccc(OC)c(N8CCC(=O)NC8=O)c6)CC7)CC5)CC4)cc23)c1 [Example 73, 1-(2-methoxy-5-(9-((4-((1R,4R)-4-(7-methoxy-2-methyl-4-(((R)-1-(4-(2-((methylamino)methyl)phenyl)thien-2-yl)ethyl)amino)quinazolin-6-yl)cyclohexane-1-carbonyl)piperazin-1-yl)methyl)-3-azaspiro[5.5]undecane-3-carbonyl)phenyl)dihydropyrimidine-2,4(1H,3H)-dione]"
< 50 nM,80 to 100%,"COc1cc2nc(C)nc(N[C@H](C)c3cc(N)cc(C(F)(F)F)c3)c2cc1[C@H]1CC[C@H](C(=O)N2CCN(CCOCC3CCN(C(=O)c4ccc(Cl)c(N5CCC(=O)NC5=O)c4)CC3)CC2)CC1 [Example 33, 1-(5-(4-((2-(4-((1R,4R)-4-(4-(((R)-1-(3-amino-5-(trifluoromethyl)phenyl)ethyl)amino)-7-methoxy-2-methylquinazolin-6-yl)cyclohexane-1-carbonyl)piperazin-1-yl)ethoxy)methyl)piperidine-1-carbonyl)-2-chlorophenyl)dihydropyrimidine-2,4(1H,3H)-dione]"
< 50 nM,80 to 100%,"COc1cc2nc(C)nc(N[C@H](C)c3cc(N)cc(C(F)(F)F)c3)c2cc1[C@H]1CC[C@H](C(=O)N2CCN(CC3CCC4(CC3)CCN(C(=O)c3ccc(Cl)c(N5CCC(=O)NC5=O)c3)CC4)CC2)CC1 [Example 2, 1-(5-(9-((4-((1R,4R)-4-(4-(((R)-1-(3-amino-5-(trifluoromethyl)phenyl)ethyl)amino)-7-methoxy-2-methylquinazolin-6-yl)cyclohexane-1-carbonyl)piperazin-1-yl)methyl)-3-azaspiro[5.5]undecane-3-carbonyl)-2-chlorophenyl)dihydropyrimidine-2,4(1H,3H)-dione]"
< 50 nM,80 to 100%,"COc1cc2nc(C)nc(N[C@H](C)c3cccc4c3CCS4(=O)=O)c2cc1[C@H]1CC[C@H](C(=O)N2CCN(CC3CCC4(CC3)CCN(C(=O)c3ccc(Cl)c(N5CCC(=O)NC5=O)c3)CC4)CC2)CC1 [Example 10, 1-(2-chloro-5-(9-((4-((1R,4R)-4-(4-(((R)-1-(1,1-dioxo-2,3-dihydrobenzo[b]thiophen-4-yl)ethyl)amino)-7-methoxy-2-methylquinazolin-6-yl)cyclohexane-1-carbonyl)piperazin-1-yl)methyl)-3-azaspiro[5.5]undecane-3-carbonyl)phenyl)dihydropyrimidine-2,4(1H,3H)-dione]"
